Measurements: ChEMBL document CHEMBL1124295, “Synthesis and oral antiallergic activity of carboxylic acids derived from imidazo[2,1-c][1,4]benzoxazines, imidazo[1,2-a]quinolines, imidazo[1,2-a]quinoxalines, imidazo[1,2-a]quinoxalinones, pyrrolo[1,2-a]quinoxalinones, pyrrolo[2,3-a]quinoxalinones, and imidazo[2,1-b]benzothiazoles” (1988)
Activity calls are given as the source filed them. No cut-off for these calls is given here.

Columns and labels:
[1] = tested on: Rattus norvegicus; assay: Inhibition of the IgE-mediated passive cutaneous anaphylaxis (PCA) reaction in rat after intravenous administration; Range 0.0103-0.0214; type: functional
[2] = tested on: Rattus norvegicus; assay: Inhibition of the IgE-mediated passive cutaneous anaphylaxis (PCA) reaction in rat after intravenous administration; Range 0.043-0.12; type: functional
[3] = tested on: Rattus norvegicus; assay: Inhibition of the IgE-mediated passive cutaneous anaphylaxis (PCA) reaction in rat after intravenous administration; Range 0.39-0.96; type: functional
[4] = tested on: Rattus norvegicus; assay: Inhibition of the IgE-mediated passive cutaneous anaphylaxis (PCA) reaction in rat after intravenous administration; Range 2.22-3.63; type: functional
[5] = tested on: Rattus norvegicus; assay: Inhibition of the IgE-mediated passive cutaneous anaphylaxis (PCA) reaction in rat after oral administration; Range 2.47-3.45; type: functional
[6] = tested on: Rattus norvegicus; assay: Inhibition of the IgE-mediated passive cutaneous anaphylaxis (PCA) reaction in rat after oral administration; Range 0.182-1.56; type: functional
[7] = tested on: Rattus norvegicus; assay: Inhibition of the IgE-mediated passive cutaneous anaphylaxis (PCA) reaction in rat after intravenous administration; Range 0.06-0.22; type: functional
[8] = tested on: Rattus norvegicus; assay: Inhibition of the IgE-mediated passive cutaneous anaphylaxis (PCA) reaction in rat after intravenous administration; Range 0.1-0.44; type: functional
[9] = tested on: Rattus norvegicus; assay: Inhibition of the IgE-mediated passive cutaneous anaphylaxis (PCA) reaction in rat after oral administration; NA means inactive at 1 and 10 mg/Kg; type: functional, organism-based
[10] = tested on: Rattus norvegicus; assay: Inhibition of the IgE-mediated passive cutaneous anaphylaxis (PCA) reaction in rat after intravenous administration; Range 0.43-0.74; type: functional
[11] = tested on: Rattus norvegicus; assay: Inhibition of the IgE-mediated passive cutaneous anaphylaxis (PCA) reaction in rat after oral administration; Range 2.89-3.99; type: functional
[12] = tested on: Rattus norvegicus; assay: Inhibition of the IgE-mediated passive cutaneous anaphylaxis (PCA) reaction in rat after oral administration; Range 0.06-0.199; type: functional
[13] = tested on: Rattus norvegicus; assay: Inhibition of the IgE-mediated passive cutaneous anaphylaxis (PCA) reaction in rat after intravenous administration; Range 0.013-0.023; type: functional
[14] = tested on: Rattus norvegicus; assay: Inhibition of the IgE-mediated passive cutaneous anaphylaxis (PCA) reaction in rat after intravenous administration; Range 0.066-0.453; type: functional
[15] = tested on: Rattus norvegicus; assay: Inhibition of the IgE-mediated passive cutaneous anaphylaxis (PCA) reaction in rat after oral administration; Range 0.021-0.089; type: functional
[16] = tested on: Rattus norvegicus; assay: Inhibition of the IgE-mediated passive cutaneous anaphylaxis (PCA) reaction in rat after oral administration; Range 0.07-22.7; type: functional
[17] = tested on: Rattus norvegicus; assay: Inhibition of the IgE-mediated passive cutaneous anaphylaxis (PCA) reaction in rat after intravenous administration; Range 0.007-0.049; type: functional
[18] = tested on: Rattus norvegicus; assay: Inhibition of the IgE-mediated passive cutaneous anaphylaxis (PCA) reaction in rat after oral administration at concentration of 10 mg/Kg of compound; type: functional
[19] = tested on: Rattus norvegicus; assay: Inhibition of the IgE-mediated passive cutaneous anaphylaxis (PCA) reaction in rat after intravenous administration; Range 1.07-3.93; type: functional
[20] = tested on: Rattus norvegicus; assay: Inhibition of the IgE-mediated passive cutaneous anaphylaxis (PCA) reaction in rat after oral administration; Range 1.88-2.85; type: functional
[21] = tested on: Rattus norvegicus; assay: Inhibition of the IgE-mediated passive cutaneous anaphylaxis (PCA) reaction in rat after oral administration; Range 0.65-6.05; type: functional
[22] = tested on: Rattus norvegicus; assay: Inhibition of the IgE-mediated passive cutaneous anaphylaxis (PCA) reaction in rat after oral administration; Range 0.031-0.15; type: functional
[23] = tested on: Rattus norvegicus; assay: Inhibition of the IgE-mediated passive cutaneous anaphylaxis (PCA) reaction in rat after intravenous administration; Range 0.052-0.43; type: functional
[24] = tested on: Rattus norvegicus; assay: Inhibition of the IgE-mediated passive cutaneous anaphylaxis (PCA) reaction in rat after intravenous administration; Range 0.072-0.41; type: functional
[25] = tested on: Rattus norvegicus; assay: Inhibition of the IgE-mediated passive cutaneous anaphylaxis (PCA) reaction in rat after oral administration of 10 mg/Kg of compound; type: functional
[26] = tested on: Rattus norvegicus; assay: Inhibition of the IgE-mediated passive cutaneous anaphylaxis (PCA) reaction in rat after intravenous administration; Range 0.22-0.59; type: functional
[27] = tested on: Rattus norvegicus; assay: Inhibition of the IgE-mediated passive cutaneous anaphylaxis (PCA) reaction in rat after intravenous administration; Range 0.025-0.11; type: functional
[28] = tested on: Rattus norvegicus; assay: Inhibition of the IgE-mediated passive cutaneous anaphylaxis (PCA) reaction in rat after oral administration; Range 0.51-7.81; type: functional
[29] = tested on: Rattus norvegicus; assay: Inhibition of the IgE-mediated passive cutaneous anaphylaxis (PCA) reaction in rat after oral administration; Range 2.71-7.46; type: functional
[30] = tested on: Rattus norvegicus; assay: Inhibition of the IgE-mediated passive cutaneous anaphylaxis (PCA) reaction in rat after intravenous administration; Range 1.73-30.03; type: functional
[31] = tested on: Rattus norvegicus; assay: Inhibition of the IgE-mediated passive cutaneous anaphylaxis (PCA) reaction in rat after oral administration; Range 12.3-33.8; type: functional
[32] = tested on: Rattus norvegicus; assay: Inhibition of the IgE-mediated passive cutaneous anaphylaxis (PCA) reaction in rat after intravenous administration; Range 0.31-0.45; type: functional
[33] = tested on: Rattus norvegicus; assay: Inhibition of the IgE-mediated passive cutaneous anaphylaxis (PCA) reaction in rat after intravenous administration; Range 0.08-1.71; type: functional
[34] = tested on: Rattus norvegicus; assay: Inhibition of the IgE-mediated passive cutaneous anaphylaxis (PCA) reaction in rat after intravenous administration; Range 0.08-0.37; type: functional
[35] = tested on: Rattus norvegicus; assay: Inhibition of the IgE-mediated passive cutaneous anaphylaxis (PCA) reaction in rat after intravenous administration; Range 2.22-5.31; type: functional
[36] = tested on: Rattus norvegicus; assay: Inhibition of the IgE-mediated passive cutaneous anaphylaxis (PCA) reaction in rat after intravenous administration; Range 0.014-0.029; type: functional
[37] = tested on: Rattus norvegicus; assay: Inhibition of the IgE-mediated passive cutaneous anaphylaxis (PCA) reaction in rat after oral administration; Range 0.21-7.6; type: functional
[38] = tested on: Rattus norvegicus; assay: Inhibition of the IgE-mediated passive cutaneous anaphylaxis (PCA) reaction in rat after oral administration; Range 0.29-6.49; type: functional
[39] = tested on: Rattus norvegicus; assay: Inhibition of the IgE-mediated passive cutaneous anaphylaxis (PCA) reaction in rat after intravenous administration; Range 0.104; type: functional
[40] = tested on: Rattus norvegicus; assay: Inhibition of the IgE-mediated passive cutaneous anaphylaxis (PCA) reaction in rat after oral administration; Inactive at 20 mg/kg; type: functional, organism-based; design: dose 20 mg/kg
[41] = tested on: Rattus norvegicus; assay: Inhibition of the IgE-mediated passive cutaneous anaphylaxis (PCA) reaction in rat after intravenous administration; Range 1.31-4.63; type: functional
[42] = tested on: Rattus norvegicus; assay: Inhibition of the IgE-mediated passive cutaneous anaphylaxis (PCA) reaction in rat after oral administration; Range 0.07-0.03; type: functional
[43] = tested on: Rattus norvegicus; assay: Inhibition of the IgE-mediated passive cutaneous anaphylaxis (PCA) reaction in rat after intravenous administration; Range 0.004-0.006; type: functional
[44] = tested on: Rattus norvegicus; assay: Inhibition of the IgE-mediated passive cutaneous anaphylaxis (PCA) reaction in rat after oral administration; Range 0.37-0.65; type: functional
[45] = tested on: Rattus norvegicus; assay: Inhibition of the IgE-mediated passive cutaneous anaphylaxis (PCA) reaction in rat after oral administration; Range 2.51-4.1; type: functional
[46] = tested on: Rattus norvegicus; assay: Inhibition of the IgE-mediated passive cutaneous anaphylaxis (PCA) reaction in rat after intravenous administration; Range 0.12-1.07; type: functional
[47] = tested on: Rattus norvegicus; assay: Inhibition of the IgE-mediated passive cutaneous anaphylaxis (PCA) reaction in rat after intravenous administration; Range 0.047-0.108; type: functional
[48] = tested on: Rattus norvegicus; assay: Inhibition of the IgE-mediated passive cutaneous anaphylaxis (PCA) reaction in rat after oral administration; NA means inactive; type: functional, organism-based
[49] = tested on: Rattus norvegicus; assay: Inhibition of the IgE-mediated passive cutaneous anaphylaxis (PCA) reaction in rat after intravenous administration; Range 0.34-0.45; type: functional
[50] = tested on: Rattus norvegicus; assay: Inhibition of the IgE-mediated passive cutaneous anaphylaxis (PCA) reaction in rat after oral administration; Range 5.21-7.35; type: functional
[51] = tested on: Rattus norvegicus; assay: Inhibition of the IgE-mediated passive cutaneous anaphylaxis (PCA) reaction in rat after oral administration; Range 0.20-0.83; type: functional
[52] = tested on: Rattus norvegicus; assay: Inhibition of the IgE-mediated passive cutaneous anaphylaxis (PCA) reaction in rat after intravenous administration; Range 0.20-0.5; type: functional

O=C(O)C(=O)Nc1ccc2c(c1)-n1cc(C(=O)O)nc1CO2
ED50 [1]: 0.0172 mg/kg

C[S+]([O-])c1ccc2ccc3nc(C(=O)O)cn3c2c1 (stereo not drawn)
ED50 [2]: 0.076 mg/kg

COc1ccc2c(c1)sc1nc(C(=O)O)cn12
ED50 [3]: 0.62 mg/kg

O=C(O)c1cn2c(n1)COc1ccccc1-2
ED50 [4]: 2.89 mg/kg | ED50 [5]: 3.2 mg/kg

CCn1c(=O)c2cc(-c3nn[nH]n3)cn2c2ccccc21
ED50 [6]: 0.44 mg/kg

CCn1c(=O)c2cc(C(=O)O)nn2c2ccccc21
ED50 [7]: 0.11 mg/kg

Cn1c(=O)c2cc(C(=O)O)nn2c2ccccc21
ED50 [8]: 0.19 mg/kg

Nc1nnnn1C(=O)c1cn2c(n1)COc1ccccc1-2
ED50 [9]: inactive | ED50 [10]: 0.58 mg/kg

COC(=O)c1cn2c(n1)COc1ccc(NC(C)=O)cc1-2
ED50 [11]: 3.48 mg/kg

CCCCn1c(=O)c2cc(C(=O)O)cn2c2ccc(Cl)cc21
ED50 [12]: 0.114 mg/kg | ED50 [13]: 0.019 mg/kg

OCc1cn2c(cnc3ccccc32)n1
ED50 [14]: 0.156 mg/kg | ED50 [15]: 0.061 mg/kg

Clc1ccc2c(Cl)cc3nc(-c4nn[nH]n4)cn3c2c1
ED50 [16]: 0.5 mg/kg | ED50 [17]: 0.016 mg/kg

O/N=C\c1cn2c(n1)COc1ccccc1-2
Inhibition [18]: 42%

O=C(O)c1cn2c(n1)N=S(=O)(c1ccccc1)c1ccccc1-2 (stereo not drawn)
ED50 [19]: 1.92 mg/kg

CCn1c(=O)c2cc(C=O)cn2c2ccccc21
ED50 [20]: 2.53 mg/kg

CC1(C)OCC(COC(=O)c2cn3c(ccc4ccccc43)n2)O1 (stereo not drawn)
ED50 [21]: 1.7 mg/kg

O=Cc1cn2c(cnc3ccccc32)n1
ED50 [22]: 0.073 mg/kg | ED50 [23]: 0.137 mg/kg

COc1cccc2sc3nc(C(=O)O)cn3c12
ED50 [24]: 0.16 mg/kg

O=C(OCC(O)CO)c1cn2c(ccc3ccccc32)n1 (stereo not drawn)
Inhibition [25]: 47%

C[S+](=N)([O-])c1cc2nc(C(=O)O)cn2c2ccccc12 (stereo not drawn)
ED50 [26]: 0.35 mg/kg

CS(=O)(=O)c1cc2nc(C(=O)O)cn2c2ccccc12
ED50 [27]: 0.047 mg/kg | ED50 [28]: 1.64 mg/kg

O=Cc1cn2c(n1)COc1ccccc1-2
ED50 [29]: 4.27 mg/kg | ED50 [30]: 4.79 mg/kg

O=C(O)c1cc2c(=O)n(-c3ccccc3)c3ccccc3n2c1
ED50 [31]: 18.9 mg/kg

Cc1nc(C(=O)O)c2c(O)nc3ccccc3n12
ED50 [32]: 0.37 mg/kg

O=C(O)c1cc2c(O)nc3ccccc3n2n1
ED50 [33]: 0.33 mg/kg

CCc1ccc2ccc3nc(C(=O)O)cn3c2c1
ED50 [34]: 0.16 mg/kg

COc1ccc2ccc3nc(CN)cn3c2c1.Cl.Cl
ED50 [35]: 3.39 mg/kg

CCCn1c(=O)c2cc(C(=O)O)nn2c2ccccc21
ED50 [36]: 0.023 mg/kg

O=Cc1cn2c(cc(Cl)c3ccc(Cl)cc32)n1
ED50 [37]: 0.5 mg/kg

OCc1cn2c(n1)COc1ccccc1-2
ED50 [38]: 2.73 mg/kg

O=C(O)c1ncn2c1c(O)nc1ccccc12
ED50 [39]: 0.104 mg/kg | ED50 [40]: inactive

O=C(O)c1cn2c(n1)COc1ccc([N+](=O)[O-])cc1-2
ED50 [41]: 2.22 mg/kg

CCCCCCc1cc([S+](C)(=N)[O-])cc2c(=O)c3cc(C(=O)O)ccc3oc12.NC(CO)(CO)CO (stereo not drawn)
ED50 [42]: 0.19 mg/kg | ED50 [43]: 0.005 mg/kg

CCOC(=O)C(=O)Nc1ccc2c(c1)-n1cc(C(=O)OC)nc1CO2
ED50 [44]: 0.5 mg/kg

O=C(OCCCl)c1cn2c(ccc3ccccc32)n1
ED50 [45]: 3.5 mg/kg

O=C(Nc1nn[nH]n1)c1cn2c(n1)COc1ccccc1-2
ED50 [46]: 0.33 mg/kg | ED50 [9]: inactive

CC(=O)Nc1ccc2c(c1)-n1cc(C(=O)O)nc1CO2
ED50 [47]: 0.073 mg/kg | ED50 [48]: inactive

O=C(O)c1cn2c(n1)CCc1ccccc1-2
ED50 [49]: 0.39 mg/kg | ED50 [50]: 6.14 mg/kg

O=C(Nc1nn[nH]n1)c1cn2c(ccc3ccccc32)n1
ED50 [51]: 0.54 mg/kg | ED50 [52]: 0.31 mg/kg
